Measured values: patent publication US6627774B2, “N-deacetylthiocolchicine derivatives and pharmaceutical compositions containing them” (Indena S.p.A., priority 2001, dated 2003)

Tested on: MCF7-ADRr
Assay type: cell-based
Description: The cytotoxic activity was evaluated according to M. C. Alley et al., Cancer Research, 48, 589-601, […].

Q: Which MCF7-ADRr/MCF7 does the source give for `COc1cc2c(c(OC)c1OC)-c1ccc(SC)c(=O)cc1[C@@H](NC(C)=O)CC2` [Thiocolchicine] here?
A: 20000
